From US20080075662A1, “Novel Method for Analyzing Nucleic Acid Et Use Thereof for Evaluating the Degree of Mrna Editing of the Serotonin 5-Ht2c Receptor” (priority 2002, published 2008)
[I] = hypoxanthine (inosine)

System: oligonucleotide complementary to the probe with the exception of the base complementary to the dI at position 15
Assay: Specificity of the array of probes: hybridization with a single-mismatch oligonucleotide
Assay type: binding

Substance: d(CAITICGTIITCCTITT) (DNA CANTNCGTNNTCCTNTT; DNA, [I] at 3, 5, 9, 10, 15, backbone not given here) [SEQ ID No. 32]
- hybridization with mismatched oligonucleotide (at the hybridization temperature chosen for all probes (between 61.1 and 54.13° C., preferably about 57.6° C.)): does not hybridize
- Tm (duplex with oligonucleotide mismatched opposite the dI at position 15 of the probe): 49.4 °C
